# Assay results from paper PMC11120612, “In Vitro and In Vivo Evaluating Bioaccessibility, Bioavailability, and Antioxidant Activities of Butterfly Pea Flower Containing Bioactive Constitutes” (Foods, 2024).
# Where two headings read alike, the source gives them in different places.
# What was measured:
# [1] = Serum pharmacokinetics in rats after consumption of 500 mg/kg BW of BF extracts; assay type: in vivo, SD rats; settings: for Detection in rat plasma/blood after administration of BF extracts: 500 mg/kg BW BF extracts
# Method: (§1) A total of 24 male SD rats aged between 6 and 8 weeks (200–220 g) were acquired from the Laboratory Animal Center of Jiangxi University of Chinese Medicine (Nanchang, China). Prior to experimentation, the rats were acclimated for 7 days in an air-conditioned room maintained at 24 ± 1 °C with a 12 h light/dark cycle. During this period, they had free access to food and water. After adaptive feeding, rats were randomly divided into three groups (n = 8), including a negative control, serum collection, and urine collection groups. […] To establish baseline data, blood samples were collected from all rats before administering the BF extracts. Blood was collected from the orbits at 15 min, 30 min, 1 h, 1.5 h, 2 h, 4 h, 6 h, 8 h, and 10 h after drug administration. Urine was collected at 6, 12, and 24 h after administration. Pretreatment of serum and urine samples was according to our previous study. The animal experiments were approved by the Animal Ethics Committee of Jiangxi University of Chinese Medicine (TEMPOR20230112).
# The quantification of substances identified was performed using an AB TRIPLE QUAD 4500 HPLC-MS2 (AB SCIEX, Framingham, MA, USA) system equipped with a C18 column (2.1 × 100 mm, 1.7 μm particle size; ACQUITY) at room temperature (25 °C). The mobile phase consisted of A (water containing 0.2% formic acid, v/v) and B (acetonitrile containing 0.2% formic acid, v/v) and the following binary program was used: 0–3 min, 5% B; 3–4 min, 95% B; 4–4.1 min, 95–5% B; 4.1–6.0 min, 5% B. The flow rate was 0.3 mL/min, and the injection volume was 10 μL. For sensitive detection and quantification, the analysis employed electrospray ionization (ESI) followed by multiple reaction monitoring (MRM) to selectively monitor the fragmentation patterns of the target analytes. Data acquisition and processing were performed with Qualbrowser.
# Blood concentration/time data analysis was performed by non-compartment model analysis and processed using Peak View®1.6 (AB SCIEX), according to a previous publication. All data are presented as mean ± standard deviation (SD). The maximum plasma concentration (Cmax), and the time to reach the maximum plasma concentration (tmax) was calculated from the observed values.
# [2] = Identification of prototypes and metabolites in rat serum and urine by UPLC-LTQ-Orbitrap-MS2 after BF extracts; assay type: in vivo, SD rats; settings: for Location: rat serum or urine after 500 mg/kg BW BF extracts, UPLC-LTQ-Orbitrap-MS2; for Detected in serum and/or urine: rat, after gavage of BF extracts
# Description: as §1, with “Prior to experimentation, the rats were acclimated for 7 days in an air-conditioned room maintained at 24 ± 1 °C with a 12 h light/dark cycle.” left out, “Blood was collected from the orbits at 15 min, 30 min, 1 h, 1.5 h, 2 h, 4 h, 6 h, 8 h, and 10 h after drug administration. Urine was collected at 6, 12, and 24 h after administration.” left out
# The metabolic profile from blood and urine samples were conducted by UPLC-LTQ-Orbitrap-MS2 (Thermo Scientific, Bremen, Germany) according to previously published methods. The samples were prepared by SPE, centrifuged at 4 °C and 2000 rpm, and stored at −80 °C. […] The LTQ-Orbitrap-MS2 was operated in negative mode with a scan range of 50–2000 m/z. A data-dependent scan with CID was performed for fragmentation. The collision energy was set at 45 eV. Data acquisition and processing were performed with Xcalibur v.2.0 software (Thermo Fisher, San Jose, CA, USA) and Qualbrowser.
# [3] = design: method as in PMID 16848510; settings: cited from earlier work
# [4] = male, SD, rat serum, oral 500 mg/kg BW BF extracts, n = 8
# [5] = rat serum, oral 500 mg/kg BW BF extracts, n = 8
compound,measurement,setting,value
"O=C(O)c1ccc(O)cc1 [4-Hydroxybenzoic acid, 4-hydroxybenzoic acid]",AUC(0-t),"[1]; male, SD, rat serum, oral 500 mg/kg BW BF extracts, 0 to 10 h, n = 8, read-out: AUC0-10",0.0313 ± 0.00191 µM·h
same,Cmax,[1]; [4],6.98 ± 0.805 nM
same,half-life,[1]; [4],6.48 ± 5.16 h
same,tmax,"[1]; male, SD, rat serum, oral 500 mg/kg BW BF extracts, n = 8, read-out: tmax",1 h
same,Detection in rat plasma/blood after administration of BF extracts,[1],detected
"OC[C@H]1O[C@@H](Oc2cc3c(O)cc(O)cc3[o+]c2-c2cc(O)c(O)c(O)c2)[C@H](O)[C@@H](O)[C@@H]1O [Delphinidin 3-glucoside, delphinidin 3-glucoside]",Location,[2],"S, U"
same,Detected in serum and/or urine,[2],both serum and urine
same,AUC0-10,"[1]; rat serum, oral 500 mg/kg BW BF extracts, 0 to 10 h, n = 8",0.054654 ± 0.009089 µM·h
same,Cmax,[1]; [5],51.6 ± 3.2 nM
same,t1/2,[1]; [5],1.639 ± 0.271 h
same,tmax,[1]; [5],0.5 h
same,Detection in rat plasma/blood after administration of BF extracts,[1],detected
"O=C(O)c1ccc(O)c(OC2OC(C(=O)O)C(O)C(O)C2O)c1 (stereo not shown) [M11, PCA-3-glucuronide]",Location,[2],S
"COc1cc(C(=O)O)ccc1O[C@@H]1O[C@H](C(=O)O)[C@@H](O)[C@H](O)[C@H]1O [M12, VA-4-glucuronide]",Location,[2],S
"O=C(O)c1ccc(O[C@@H]2O[C@H](C(=O)O)[C@@H](O)[C@H](O)[C@H]2O)c(O)c1 [M13, PCA-4-glucuronide]",Location,[2],"S, U"
"Oc1cc(O)c2cc(O)c(-c3cc(O)c(O)c(O)c3)[o+]c2c1 [M16, delphinidin]",Location,[2],"S, U"
C[C@@H]1O[C@@H](OC[C@H]2O[C@@H](Oc3c(-c4ccc(O)c(O)c4)oc4cc(O)cc(O)c4c3=O)[C@H](O)[C@@H](O)[C@@H]2O)[C@H](O)[C@H](O)[C@H]1O [rutin],Detected in serum and/or urine,[2],exclusively in urine
O=C([O-])CC(=O)OC[C@H]1O[C@@H](Oc2cc3c(O)cc(O)cc3[o+]c2-c2cc(O[C@@H]3O[C@H](COC(=O)/C=C/c4ccc(O[C@@H]5O[C@H](COC(=O)/C=C/c6ccc(O)cc6)[C@@H](O)[C@H](O)[C@H]5O)cc4)[C@@H](O)[C@H](O)[C@H]3O)c(O)c(O[C@@H]3O[C@H](COC(=O)/C=C/c4ccc(O[C@@H]5O[C@H](COC(=O)/C=C/c6ccc(O)cc6)[C@@H](O)[C@H](O)[C@H]5O)cc4)[C@@H](O)[C@H](O)[C@H]3O)c2)[C@H](O)[C@@H](O)[C@@H]1O [ternatin D1],Detection in rat plasma/blood after administration of BF extracts,[1],not detected
benzoic acid-4-glucuronide [M19],Location,[2],"S, U"
cyanidin-3-(p-coumaroyl) glucose,Location,[2],S
same,Detected in serum and/or urine,[2],serum
delphinidin-3-p-coumaroyl-rutinoside-5-glucoside [nasunin],Time of rapid peak in rat plasma (postprandial),[3],15 min
